Laboratory results taken from patent publication US12053459B2, “CDK2 inhibitors and methods of using the same” (Cedilla Therapeutics, Inc., priority 2021, dated 2024).

Assays:
CDK2/Cyclin E1(14-475) = CDK2/Cyclin E1(14-475) (Homo sapiens, UniProt P24941); assay: Caliper LabChip EZ Reader mobility shift assay, inhibition of CDK2/Cyclin E1 activity; assay type: biochemical; conditions: class symbols A-D
Method: Inhibition of CDK2/Cyclin E1 activity in the presence of compounds of the present disclosure was evaluated using a Caliper LabChip® EZ Reader mobility shift assay. In the assay, activated CDK2/Cyclin E1 catalyzes the phosphorylation of a fluorescently tagged peptide 5-FAM-QSPKKG-CONH2 (PerkinElmer, FL Peptide 18) which induces a difference in capillary electrophoresis mobility. The peptide substrate and product were measured, and the conversion ratio was used to determine the inhibition (as % activity and IC50 values) of CDK2/Cyclin E1. Reactions contained 50 mM HEPES pH 7.5, 10 mM MgCl2, 1 mM EDTA, 2 mM DTT, 0.01% Brij35, 0.5 mg/mL BSA, 0.1% DMSO, 2.5 nM CDK2/Cyclin E1(14-475), 100 μM ATP, and 1.5 μM fluorescent peptide substrate.
Dose titrations of inhibitors in 100% DMSO were combined with 3.25 nM CDK2/Cyclin E1(14-475) and 130 μM of ATP in reaction buffer. The mixtures were incubated for 30 minutes before the addition of fluorescent peptide substrate to initiate the kinase reaction. The final conditions were 2.5 nM CDK2/Cyclin E1(14-475), 100 μM ATP, and 1.5 μM fluorescent peptide. The reactions were stopped after 100 minutes with the addition of EDTA (6 mM final EDTA concentration). The stopped reactions were analyzed on a Caliper LabChip® EZ Reader II. The conversion ratios were normalized to yield % activity, plotted against compound concentration, and fit to a four-parameter equation to determine the IC50 for each compound.

Kuramochi cells = assay: BrdU cell proliferation assay (colorimetric ELISA), Kuramochi cells; assay type: cell-based; conditions: class symbols A-D
Method: A BrdU assay was used as a measure of proliferation based on the DNA replication process of proliferating cells. BrdU, a pyrimidine analog, is added to the cell culture and incorporated into the DNA of proliferating cells. The presence of the BrdU analog was then measured through a colorimetric ELISA. After fixation and permeabilization of cells, peroxidase-conjugated antibody recognizing BrdU is added and allowed to incubate, followed by thorough washing to remove unbound antibody. In order to quantify the amount of bound antibody, peroxidase substrate is added and produces a color that can be measured at 450 nm.
On day −1, Kuramochi cells (Sekisui XenoTech JCRB0098) were seeded at 2,000 cells/well in columns 2-12 of a 96 well plate (Corning, CLS3596) in 150 uL media and allowed to adhere overnight at 37 degree with 5% CO2. In order to assess specificity of the compounds, Kuramochi RB^KO cells were also plated and treated, as RB^KO cells were not expected to show a proliferative response to CCNE/CDK specific inhibitors.
On day 0, the source plate was prepared by adding 10 mM compounds and performing 3-fold serial dilutions for a 4-point dose response of each compound. Using a multichannel pipette, 2 uL of the contents of the source plate were stamped into an intermediate plate with 500 uL of RPMI 1640 Media, GlutaMAX Supplement (Life Technologies, 61870127) in each well of a Nunc 96 DeepWell™ plate, non-treated 96 DeepWell plate, 2 mL/well, sterile, natural, 60/cs (Sigma Z717274) and mixed thoroughly. 50 uL from row A of this intermediate plate were added to rows A-H of one plate of previously seeded Kuramochi cells, and each subsequent row of the intermediate plate was added to a full plate of cells.
On day 4, the plates were developed using the BrdU ELISA Cell Proliferation Assay according to manufacturer's instructions (Roche, 11647229001). Briefly, BrdU was diluted 1:100 in Gibco®, Opti-MEM® and 20 μL/well was added, shaken for 10 minutes at 350 rpm, and then returned to the incubator for 1 hour. Following incubation, the medium was discarded, and the cells were fixed by adding 200 μL of Fix/Denature solution. The anti-BrdU peroxidase antibody was diluted 1:1000 in OptiMEM, added at 100 μL/well, and incubated while shaking (350 rpm) for one hour. Three washes with PBS were performed to remove any unbound antibody, followed by the addition of 100 μL of substrate solution to each well. […] was then added to halt the reaction, and plates were read out using an Envision spectrophotometer (Perkin Elmer) set to read 450 nm absorbance. Background absorbance values from empty wells were subtracted from all samples and then normalized to DMSO treated wells.

Compound | IC50 (CDK2/Cyclin E1(14-475)) [µM] | IC50 (Kuramochi cells) [µM]
CNC(=O)[C@H](NC(=O)C1CN(C(=O)Cc2c[nH]c3cc(Cl)ccc23)CC2CN(C(=O)c3ccc(OC(C)C)c(OC)c3)CC21)[C@H](C)OCc1ccccc1 (stereo partly drawn) [I-105] | > 10 | > 10
CNC(=O)[C@H](CCCc1ccccc1)NC(=O)C1CN(C(=O)Cc2c[nH]c3cc(Cl)ccc23)CC2CN(C(=O)c3ccc(-c4ccncc4)cc3)CC21 (stereo partly drawn) [I-14] | > 10 | > 10
CNC(=O)[C@H](CCCc1ccccc1)NC(=O)C1CN(C(=O)Cc2c[nH]c3cc(Cl)ccc23)CC2CN(C(=O)c3ccc4c(c3)CNC4=O)CC21 (stereo partly drawn) [I-45] | > 10 | > 10
CNC(=O)[C@H](NC(=O)C1CN(C(=O)Cc2c[nH]c3cc(Cl)ccc23)CC2CN(C(=O)c3ccc(OC(C)C)c(OC)c3)CC21)[C@@H](C)OCc1ccccc1 (stereo partly drawn) [I-92] | > 10 | > 10
CNC(=O)[C@H](CCCc1ccccc1)NC(=O)C1CN(C(=O)c2n[nH]c3ccccc23)CC2CN(C(=O)c3ccc(OC(C)C)c(OC)c3)CC21 (stereo partly drawn) [I-182] | > 10 | > 10
CNC(=O)[C@H](CCCc1ccccc1)NC(=O)C1CN(C(=O)Cc2c[nH]c3cccc(C)c23)CC2CN(C(=O)c3ccc(OC(C)C)c(OC)c3)CC21 (stereo partly drawn) [I-217] | > 10 | > 10
C[C@@H](OCc1ccc(F)cc1)[C@@H](NC(=O)C1CN(C(=O)Cc2c[nH]c3cc(Cl)ccc23)CC2CN(C(=O)c3ccc(OC4CC4)cc3)CC21)C(N)=O (stereo partly drawn) [I-246] | > 10 | > 10
CNC(=O)[C@H](CCCc1ccccc1)NC(=O)C1CN(C(=O)c2ccc(C#N)cn2)CC2CN(C(=O)c3ccc(OC(C)C)c(OC)c3)CC21 (stereo partly drawn) [I-208] | > 10 | > 10
CNC(=O)[C@H](CCCc1ccccc1)NC(=O)C1CN(C(=O)Cc2c[nH]c3cc(Cl)ccc23)CC2CN(C(=O)c3cc(C4CC4)[nH]n3)CC21 (stereo partly drawn) [I-30] | > 10 | > 10
CNC(=O)[C@H](CCCc1ccccc1)NC(=O)C1CN(C(=O)Cc2cc[nH]n2)CC2CN(C(=O)c3ccc(OC(C)C)c(OC)c3)CC21 (stereo partly drawn) [I-198] | > 10 | > 10
CNC(=O)[C@H](CCCc1ccccc1)NC(=O)C1CN(C(=O)Cc2c[nH]c3cc(Cl)ccc23)CC2CN(C(=O)c3cn(-c4ccccc4)cn3)CC21 (stereo partly drawn) [I-27] | > 10 | > 10
CNC(=O)[C@H](CCCc1ccccc1)NC(=O)C1CN(C(=O)Cc2c[nH]c3cc(Cl)ccc23)CC2CN(C(=O)c3ccc4cccnc4c3)CC21 (stereo partly drawn) [I-80] | > 10 | > 10
CNC(=O)[C@H](CCCc1ccccc1)NC(=O)C1CN(C(=O)c2c[nH]c3ccc(F)cc23)CC2CN(C(=O)c3ccc(OC(C)C)c(OC)c3)CC21 (stereo partly drawn) [I-190] | > 10 | > 10
CNC(=O)[C@H](CCCc1ccccc1)NC(=O)C1CN(C(=O)Cc2c[nH]c3cc(Cl)ccc23)CC2CN(C(=O)c3cnn(C)c3)CC21 (stereo partly drawn) [I-55] | > 10 | > 10
CNC(=O)[C@@H](NC(=O)C1CN(C(=O)Cc2c[nH]c3cc(Cl)ccc23)CC2CN(C(=O)c3cc(-c4ccccc4)n[nH]3)CC21)[C@@H](C)OCc1ccccc1 (stereo partly drawn) [I-252] | > 10 | > 10
CNC(=O)[C@H](NC(=O)C1CN(C(=O)Cc2c[nH]c3cc(Cl)ccc23)CC2CN(C(=O)c3ccc(OC(C)C)c(OC)c3)CC21)[C@@H](C)OCC1CCCCC1 (stereo partly drawn) [I-108] | > 10 | > 10
CNC(=O)[C@H](CCCc1ccccc1)NC(=O)C1CN(C(=O)Cc2c[nH]c3cc(Cl)ccc23)CC2CN(C(=O)c3ccc4c(c3)c(OC)nn4C(C)C)CC21 (stereo partly drawn) [I-84] | 0.5 to 5 | > 10

Compound | IC50 (CDK2/Cyclin E1(14-475)) [µM] | IC50 (Kuramochi cells) [µM]
CNC(=O)[C@H](CCCc1ccccc1)NC(=O)C1CN(C(=O)Cc2c[nH]c3cc(Cl)ccc23)CC2CN(C(=O)c3cc(-c4ccccc4)nn3C)CC21 (stereo partly drawn) [I-26] | 5 to 10 | > 10
CNC(=O)[C@H](CCCc1ccccc1)NC(=O)C1CN(C(=O)Cc2c[nH]c3cc(Cl)ccc23)CC2CN(C(=O)c3ccc4oc(C)cc4c3)CC21 (stereo partly drawn) [I-3] | > 10 | > 10
CNC(=O)[C@H](CCCc1ccccc1)NC(=O)C1CN(C(=O)c2coc(Cl)n2)CC2CN(C(=O)c3ccc(OC(C)C)c(OC)c3)CC21 (single isomer, unassigned) [I-232] | > 10 | > 10
CNC(=O)[C@H](CCCc1ccccc1)NC(=O)C1CN(C(=O)c2cc(C)[nH]n2)CC2CN(C(=O)c3ccc(OC(C)C)c(OC)c3)CC21 (stereo partly drawn) [I-183] | > 10 | > 10
CNC(=O)[C@H](CCCc1ccccc1)NC(=O)C1CN(C(=O)Cc2n[nH]c3cc(Cl)ccc23)CC2CN(C(=O)c3ccc(OC(C)C)c(OC)c3)CC21 (stereo partly drawn) [I-205] | 0.5 to 5 | > 10
CNC(=O)[C@H](NC(=O)C1CN(C(=O)Cc2c[nH]c3cc(Cl)ccc23)CC2CN(C(=O)c3ccc(OC(C)C)c(OC)c3)CC21)[C@H](C)OCC1CCCCC1 (stereo partly drawn) [I-129] | > 10 | > 10
COc1cc(C(=O)N2CC3CN(C(=O)Cc4c[nH]c5cc(Cl)ccc45)CC(C(=O)N[C@@H](CCCc4ccccc4)C(N)=O)C3C2)ccc1OC(C)C (stereo partly drawn) [I-109] | 0.5 to 5 | > 10
CNC(=O)[C@H](CCCc1ccccc1)NC(=O)C1CN(C(=O)c2c[nH]c3cc(Cl)ccc23)CC2CN(C(=O)c3ccc(OC(C)C)c(OC)c3)CC21 (stereo partly drawn) [I-172] | > 10 | > 10
CNC(=O)[C@H](CCCc1ccccc1)NC(=O)C1CN(C(=O)C(C)(C)c2c[nH]c3ccccc23)CC2CN(C(=O)c3ccc(OC(C)C)c(OC)c3)CC21 (stereo partly drawn) [I-177] | > 10 | > 10
CNC(=O)[C@H](CCCc1ccccc1)NC(=O)C1CN(C(=O)Cc2c(C)[nH]c3ccccc23)CC2CN(C(=O)c3ccc(OC(C)C)c(OC)c3)CC21 (stereo partly drawn) [I-201] | 0.5 to 5 | > 10
CNC(=O)[C@H](CCCc1ccccc1)NC(=O)C1CN(C(=O)c2ccc(OC)nn2)CC2CN(C(=O)c3ccc(OC(C)C)c(OC)c3)CC21 (stereo partly drawn) [I-216] | > 10 | > 10
CNC(=O)[C@@H](NC(=O)C1CN(C(=O)Cc2c[nH]c3cc(Cl)ccc23)CC2CN(C(=O)c3ccc(OC4CC4)cc3)CC21)[C@@H](C)OCC1CCCCC1 (stereo partly drawn) [I-242, 5-(2-(6-chloro-1H-indol-3-yl)acetyl)-N-((2S,3R)-3-(cyclohexylmethoxy)-1-(methylamino)-1-oxobutan-2-yl)-2-(4-cyclopropoxybenzoyl)octahydro-1H-pyrrolo[3,4-c]pyridine-7-carboxamide] | 0.5 to 5 | > 10
COc1cc(C(=O)N2CC3CN(C(=O)Cc4c[nH]c5cc(Cl)ccc45)CC(C(=O)N[C@H]4CCCN(Cc5ccccc5)C4)C3C2)ccc1OC(C)C (single isomer, unassigned) [I-117] | 0.5 to 5 | > 10
C[C@H](OCc1ccc(F)cc1)[C@@H](NC(=O)C1CN(C(=O)Cc2c[nH]c3cc(Cl)ccc23)CC2CN(C(=O)c3ccc(OC4CC4)cc3)CC21)C(N)=O (stereo partly drawn) [I-245] | > 10 | > 10
CNC(=O)[C@H](CCCc1ccccc1)NC(=O)C1CN(C(=O)Cc2c[nH]c3cc(Cl)ccc23)CC2CN(C(=O)c3cc4ccccc4[nH]3)CC21 (stereo partly drawn) [I-61] | > 10 | > 10
CNC(=O)[C@@H](CCCC1CCC(O)CC1)NC(=O)C1CN(C(=O)Cc2c[nH]c3cc(Cl)ccc23)CC2CN(C(=O)c3ccc(OC(C)C)c(OC)c3)CC21 (stereo partly drawn) [I-142] | > 10 | > 10
